Measured values from patent US7022856B2, “Carboline derivatives” (LIlly Icos LLC., priority 2001, dated 2006).

biological target: T1, PDE5 (bovine aorta) (Bos taurus, UniProt Q28156); test: cGMP-PDE inhibition, one-step assay, enzyme from bovine aorta; assay type: biochemical; conditions: versus bovine aorta (footnote 1)
T1 construct: from tissue; host or cells: bovine aorta
Description: (§1) cGMP-PDE activity of compounds of the present invention was measured using a one-step assay adapted from Wells et al., Biochim. Biophys. Acta, 384, 430 (1975). The reaction medium contained 50 mM Tris-HCl, pH 7.5, 5 mM magnesium acetate. 250 μg/ml 5′-Nucleotidase, 1 mM EGTA, and 0.15 μM 8-[H^3]-cGMP. Unless otherwise indicated, the enzyme used was a human recombinant PDE5 (ICOS Corp., Bothell, Wash.).
(§2) Compounds of the invention were dissolved in DMSO finally present at 2% in the assay.

With `O=C(c1ccccc1)N1CCc2c([nH]c3ccccc23)C1c1ccc2c(c1)OCO2` (stereo not drawn) [Example 3] as the compound, how does the IC50 read?
The IC50 was 440 nM.

For `CC(=O)Nc1ccc(C(=O)N2CCc3c([nH]c4ccccc34)C2c2ccc3c(c2)OCO3)cc1` (stereo not drawn) [Example 4, N-{4[1-(1-Benzo[1,3]dioxol-5-yl-1,3,4,9-tetrahydro-β-carboline-2-yl)-methanoyl]phenyl}acetamide], which IC50 is on record?
Its IC50 is 50 nM.

Which IC50 does the source give for `O=C(c1ccc2nc[nH]c2c1)N1CCc2c([nH]c3ccccc23)C1c1ccc2c(c1)OCO2` (stereo not drawn) [Example 12, 1-(1-Benzo[1,3]dioxol-5-yl-1,3,4,9-tetrahydro-β-carbolin-2-yl)-1-(3H-benzoimidazol-5-yl)methanone] here?
Its IC50 is 180 nM.

For `O=C(c1cc2ccccc2s1)N1CCc2c([nH]c3ccccc23)C1c1ccc(C(F)(F)F)cc1` (stereo not drawn) [Example 14], which IC50 is on record?
Its IC50 is 200 nM.

Which IC50 does the source give for `O=C(c1ccc(-c2ccccn2)s1)N1CCc2c([nH]c3ccccc23)C1c1ccccc1` (stereo not drawn) [Example 15] here?
The IC50 was 1 nM.

Which IC50 does the source give for `CC(=O)Nc1ccc(C2c3[nH]c4ccccc4c3CCN2C(=O)c2cc3ccccc3s2)cc1` (stereo not drawn) [Example 16] here?
The IC50 was 70 nM.

With `O=C(c1ccc(-c2ccccn2)s1)N1CCc2c([nH]c3ccccc23)C1c1ccc2c(c1)OCO2` (stereo not drawn) [Example 17] as the compound, how does the IC50 read?
Its IC50 is 250 nM.

system: not given; test: not given; conditions: not given

For `O=C(c1ccc2ccccc2c1)N1CCc2c([nH]c3ccccc23)C1c1ccc2c(c1)OCO2` (stereo not drawn) [Example 1, 1-(2H-Benzo[d]1,3-dioxolan-5-yl)(1,2,3,4-tetrahydro-β-carbolin-2-yl)-2-naphthyl ketone], which melting point is on record?
The melting point was 248 to 249 °C.

Which melting point does the source give for `O=C(c1ccc2ccccc2c1)N1CCc2c([nH]c3ccccc23)[C@H]1c1ccc2c(c1)OCO2` [Example 2, 1-(2H-benzo[d]1,3-dioxolan-5-yl)(1R)(1,2,3,4-tetrahydro-β-carbolin-2-yl)2-naphthyl ketone] here?
The melting point was 285 °C.

With `Cc1c(S(=O)(=O)N2CCc3c([nH]c4ccccc34)[C@H]2c2ccc3c(c2)OCO3)sc2ccc(Cl)cc12` [Example 45] as the compound, how does the melting point read?
Its melting point is 139 to 143 °C.

biological target: T2, human recombinant PDE5 (Homo sapiens, UniProt O76074); test: cGMP-PDE inhibition, one-step assay with human recombinant PDE5; assay type: biochemical; conditions: 0.15 μM 8-[H3]-cGMP, 30 min
T2 construct: host or cells: Saccharomyces cerevisiae strain BJ2-54 (ATCC 74465)
Description: The compounds of structural formula (I) were tested for an ability to inhibit PDE5. The ability of a compound to inhibit PDE5 activity is related to the IC50 value for the compound, i.e., the concentration of inhibitor required for 50% inhibition of enzyme activity. The IC50 value for compounds pounds of structural formula (I) were determined using recombinant human PDE5.
Recombinant production of human PDE1B, PDE2, PDE4A, PDE4B, PDE4C, PDE4D, PDE5, and PDE7 was carried out similarly to that described in Example 7 of U.S. Pat. No. 5,702,936, incorporated herein by reference, except that the yeast transformation vector employed, which is derived from the basic ADH2 plasmid described in Price et al., Methods in Enzymology, 185, pp. 308–318 (1990), incorporated yeast ADH2 promoter and terminator sequences and the Saccharomyces cerevisiae host was the protease-deficient strain BJ2-54 deposited on Aug. 31, 1998 with the American Type Culture Collection, Manassas, Va., under accession number ATCC 74465. Transformed host cells were grown in 2×SC-leu medium, pH 6.2, with trace metals, and vitamins. After 24 hours, YEP medium-containing glycerol was added to a final concentration of 2×YET/3% glycerol. Approxiately 24 hr later, cells were harvested, washed, and stored at −70° C. […]
Cell pellets (29 g) were thawed on ice with an equal volume of Lysis Buffer (25 mM Tris HCl, pH 8, 5 mM MgCl2, 0.25 mM DTT, 1 mM benzamidine, and 10 μM ZnSO4). Cells were lysed in a Microfluidizer® (Microfluidics Corp.) using nitrogen at 20,000 psi. The lysate was centrifuged and filtered through 0.45 μm disposable filters. The filtrate was applied to a 150 mL column of Q SEPHAROSE® Fast-Flow (Pharmacia). The column was washed with 1.5 volumes of Buffer A (20 mM Bis-Tris Propane, pH 6.8, 1 mM MgCl2, 0.25 mM DTT, 10 μM ZnSO4) and eluted with a step gradient of 125 mM NaCl in Buffer A followed by a linear gradient of 125–1000 mM NaCl in Buffer A. Active fractions from the linear gradient were applied to a 180 mL hydroxyapatite column in Buffer B (20 mM Bis-Tris Propane (pH 6.8), 1 mM MgCl2, 0.25 mM DTT, 10 μM ZnSO4, and 250 mM KCl). After loading, the column was washed with 2 volumes of Buffer B and eluted with a linear gradient of 0–125 mM potassium phosphate in Buffer B. Active fractions were pooled, precipitated with 60% ammonium sulfate, and resuspended in Buffer C (20 mM Bis-Tris Propane, pH 6.8, 125 mM NaCl, 0.5 mM DTT, and 10 μM ZnSO4). The pool was applied to a 140 mL column of SEPHACRYL® S-300 HR and eluted with Buffer C. Active fractions were diluted to 50% glycerol and stored at −20° C.
as §1, §2

Which IC50 does the source give for `O=C(c1ccc2ccccc2c1)N1CCc2c([nH]c3ccccc23)C1c1ccc2c(c1)OCO2` (stereo not drawn) [Example 1, 1-(2H-Benzo[d]1,3-dioxolan-5-yl)(1,2,3,4-tetrahydro-β-carbolin-2-yl)-2-naphthyl ketone] here?
Its IC50 is 566 nM.

Which IC50 does the source give for `O=C(c1ccc2ccccc2c1)N1CCc2c([nH]c3ccccc23)[C@H]1c1ccc2c(c1)OCO2` [Example 2, 1-(2H-benzo[d]1,3-dioxolan-5-yl)(1R)(1,2,3,4-tetrahydro-β-carbolin-2-yl)2-naphthyl ketone] here?
Its IC50 is 710 nM.

With `Cc1c(S(=O)(=O)N2CCc3c([nH]c4ccccc34)[C@H]2c2ccc3c(c2)OCO3)sc2ccc(Cl)cc12` [Example 45] as the compound, how does the IC50 read?
Its IC50 is 220 nM.

For `Clc1nc(N2CCc3c([nH]c4ccccc34)C2c2ccc3c(c2)OCO3)c2nc[nH]c2n1` (stereo not drawn) [Example 53], which IC50 is on record?
The IC50 was 70 nM.

Which IC50 does the source give for `CN1CCN(c2nccc(N3CCc4c([nH]c5ccccc45)C3c3ccc4c(c3)OCO4)n2)CC1` (stereo not drawn) [Example 54] here?
Its IC50 is 560 nM.

For `c1ccc(-c2nccc(N3CCc4c([nH]c5ccccc45)C3c3ccc4c(c3)OCO4)n2)cc1` (stereo not drawn) [Example 55], which IC50 is on record?
The IC50 was 20 nM.

For `c1csc(-c2nccc(N3CCc4c([nH]c5ccccc45)C3c3ccc4c(c3)OCO4)n2)c1` (stereo not drawn) [Example 56], which IC50 is on record?
The IC50 was 40 nM.

With `c1ccc2c3c([nH]c2c1)C(c1ccc2c(c1)CCO2)N(c1ccnc(-n2ccnc2)n1)CC3` (stereo not drawn) [Example 57] as the compound, how does the IC50 read?
The IC50 was 60 nM.

For `c1ccc(-c2ccnc(N3CCc4c([nH]c5ccccc45)C3c3ccc4c(c3)CCO4)n2)cc1` (stereo not drawn) [Example 58], which IC50 is on record?
The IC50 was 30 nM.

For `c1cncc(-c2ccnc(N3CCc4c([nH]c5ccccc45)C3c3ccc4c(c3)CCO4)n2)c1` (stereo not drawn) [Example 59], which IC50 is on record?
Its IC50 is 40 nM.

With `c1ccc2c3c([nH]c2c1)C(c1ccc2c(c1)CCO2)N(c1nccc(-n2ccnc2)n1)CC3` (stereo not drawn) [Example 60] as the compound, how does the IC50 read?
The IC50 was 70 nM.

With `c1cncc(-c2nccc(N3CCc4c([nH]c5ccccc45)C3c3ccc4c(c3)CCO4)n2)c1` (stereo not drawn) [Example 61] as the compound, how does the IC50 read?
Its IC50 is 40 nM.

Which IC50 does the source give for `c1csc(-c2nccc(N3CCc4c([nH]c5ccccc45)C3c3ccc4c(c3)CCO4)n2)c1` (stereo not drawn) [Example 62] here?
Its IC50 is 50 nM.

For `Cc1nccn1-c1nccc(N2CCc3c([nH]c4ccccc34)C2c2ccc3c(c2)CCO3)n1` (stereo not drawn) [Example 63], which IC50 is on record?
The IC50 was 40 nM.

Which IC50 does the source give for `c1ccc2c3c([nH]c2c1)C(c1ccc2c(c1)CCO2)N(c1ccnc(N2CCCCC2)n1)CC3` (stereo not drawn) [Example 64] here?
The IC50 was 760 nM.

With `c1ccc2c3c([nH]c2c1)C(c1ccc2c(c1)CCO2)N(c1cc(-n2ccnc2)ncn1)CC3` (stereo not drawn) [Example 65] as the compound, how does the IC50 read?
Its IC50 is 20 nM.

For `c1coc(-c2ccnc(N3CCc4c([nH]c5ccccc45)C3c3ccc4c(c3)CCO4)n2)c1` (stereo not drawn) [Example 66], which IC50 is on record?
The IC50 was 340 nM.

Which IC50 does the source give for `c1coc(-c2nccc(N3CCc4c([nH]c5ccccc45)C3c3ccc4c(c3)CCO4)n2)c1` (stereo not drawn) [Example 67] here?
The IC50 was 70 nM.

For `Cc1nccn1-c1cc(N2CCc3c([nH]c4ccccc34)C2c2ccc3c(c2)CCO3)ncn1` (stereo not drawn) [Example 68], which IC50 is on record?
Its IC50 is 20 nM.

With `c1cncc(-c2nccc(N3CCc4c([nH]c5ccccc45)C3c3ccc4c(c3)CCO4)n2)c1` (stereo not drawn) [Example 69] as the compound, how does the IC50 read?
The IC50 was 9 nM.

For `CN(C)CCOc1ccc(-c2ccnc(N3CCc4c([nH]c5ccccc45)C3c3ccc4c(c3)CCO4)n2)cc1` (stereo not drawn) [Example 70], which IC50 is on record?
The IC50 was 20 nM.

With `Cc1ncn(-c2cc(N3CCc4c([nH]c5ccccc45)C3c3ccc4c(c3)CCO4)ncn2)c1C` (stereo not drawn) [Example 71] as the compound, how does the IC50 read?
Its IC50 is 20 nM.

With `Oc1ccc(-c2ccnc(N3CCc4c([nH]c5ccccc45)C3c3ccc4c(c3)CCO4)n2)cc1` (stereo not drawn) [Example 72] as the compound, how does the IC50 read?
The IC50 was 10 nM.

Which IC50 does the source give for `Cc1ncn(-c2nccc(N3CCc4c([nH]c5ccccc45)C3c3ccc4c(c3)CCO4)n2)c1C` (stereo not drawn) [Example 73] here?
Its IC50 is 30 nM.

With `Cc1cn(-c2ccnc(N3CCc4c([nH]c5ccccc45)C3c3ccc4c(c3)CCO4)n2)cn1` (stereo not drawn) [Example 74] as the compound, how does the IC50 read?
Its IC50 is 40 nM.

Which IC50 does the source give for `c1ccc(-c2cc(N3CCc4c([nH]c5ccccc45)C3c3ccc4c(c3)CCO4)ncn2)cc1` (stereo not drawn) [Example 75] here?
The IC50 was 7 nM.

With `Cc1cn(-c2cc(N3CCc4c([nH]c5ccccc45)C3c3ccc4c(c3)CCO4)ncn2)cn1` (stereo not drawn) [Example 76] as the compound, how does the IC50 read?
The IC50 was 10 nM.

With `c1cncc(-c2cc(N3CCc4c([nH]c5ccccc45)C3c3ccc4c(c3)CCO4)ncn2)c1` (stereo not drawn) [Example 77] as the compound, how does the IC50 read?
The IC50 was 4 nM.

For `Cc1nccn1-c1ccnc(N2CCc3c([nH]c4ccccc34)C2c2ccc3c(c2)CCO3)n1` (stereo not drawn) [Example 78], which IC50 is on record?
The IC50 was 60 nM.

Which IC50 does the source give for `COc1ccc(-c2cc(N3CCc4c([nH]c5ccccc45)C3c3ccc4c(c3)CCO4)ncn2)cc1` (stereo not drawn) [Example 79] here?
Its IC50 is 4 nM.

With `Oc1ccc(-c2cc(N3CCc4c([nH]c5ccccc45)C3c3ccc4c(c3)CCO4)ncn2)cc1` (stereo not drawn) [Example 80] as the compound, how does the IC50 read?
The IC50 was 50 nM.

Which IC50 does the source give for `CC(=O)Oc1ccc(-c2cc(N3CCc4c([nH]c5ccccc45)C3c3ccc4c(c3)CCO4)ncn2)cc1` (stereo not drawn) [Example 81] here?
Its IC50 is 3 nM.

For `CN(C)CCOc1ccc(-c2cc(N3CCc4c([nH]c5ccccc45)C3c3ccc4c(c3)CCO4)ncn2)cc1` (stereo not drawn) [Example 82], which IC50 is on record?
Its IC50 is 5 nM.

With `Cc1ccc(C2c3[nH]c4ccccc4c3CCN2C(=O)c2cc3ccccc3s2)cc1` (stereo not drawn) [Example 83] as the compound, how does the IC50 read?
The IC50 was 82 nM.

With `O=C(c1cc2ccccc2s1)N1CCc2c([nH]c3ccccc23)C1c1ccc2c(c1)OCO2` (stereo not drawn) [Example 84] as the compound, how does the IC50 read?
Its IC50 is 309 nM.

Which IC50 does the source give for `O=C(c1cc2ccccc2s1)N1CCc2c([nH]c3ccccc23)C1c1cccc(Cl)c1` (stereo not drawn) [Example 85] here?
Its IC50 is 835 nM.

For `O=C(c1cc2ccccc2s1)N1CCc2c([nH]c3ccccc23)C1c1ccccc1` (stereo not drawn) [Example 86], which IC50 is on record?
Its IC50 is 900 nM.

Which IC50 does the source give for `c1ccc2c3c([nH]c2c1)C(c1ccc2c(c1)OCO2)N(c1nccc(N2CCOCC2)n1)CC3` (stereo not drawn) [Example 87] here?
Its IC50 is 1010 nM.
